Measurements: patent US20120108431A1, “PLANT GROWTH REGULATOR ADDITIVE” (TAMINCO, NAAMLOZE VENNOOTSCHAP, priority 2009, published 2012)
“And” between values parts separate entries of the source, which are not always exact repeats. Identical values can stand only once.

How the values were obtained:
Type in all cases: in vivo
Soybean = Soybean Trial 1, pot trial, foliar spray at V2-V3; conditions: soybean; for Final Seed Yield at Harvest (g per pot): one plant per pot; for Rooting (0-9) + 28 Days: score 0-9, 28 days after spraying; for Final Seed Yield + % / No of Large Pod Bearing Branches/Plant + % / Plant Biomass Score + % / Rooting + %: increase over the line given as 0 (untreated or growth regulator alone)
Navy bean cv Primel = assay: Navy bean Trial 2, pot trial, foliar spray at V2-V3; conditions: navy bean; for Final Seed Yield at Harvest (g per pot): one plant per pot; for Rooting (0-9) + 28 Days: score 0-9, 28 days after spraying; for Final Seed Yield + % / No of Large Pod Bearing Branches/Plant + % / Plant Biomass Score + % / Rooting + %: increase over the line given as 0 (untreated or growth regulator alone)
Winter wheat cv Limerick = assay: Winter wheat Trial 3, pot trial, sprayed at GS23; conditions: for Total No of Shoots/Plant at GS33 / Total No of “Large” Shoots/Plant at GS33 / Rooting (0-9) + 28 Days / Final Seed Yield + % / Rooting + % / Total No of Shoots/Plant + % / Total No of “Large” Shoots/Plant + %: winter wheat pots; for Rooting (0-9) + 28 Days: score 0-9, 28 days after spraying; for Final Seed Yield + % / Rooting + % / Total No of Shoots/Plant + % / Total No of “Large” Shoots/Plant + %: increase over the line given as 0 (untreated or growth regulator alone); for Final Seed Yield at Harvest (g per pot): winter wheat, eight plants per pot
Experimental: The applied concentration of chemical can vary widely depending on the water volume applied to plants as well as other factors such as plant age and size, and plant sensitivity to the product. […] The rate of other components such as spreaders and stickers can be 50-200 ml per ha. C. […] Sprayed: 10 June, at GS23 (early-mid tillering). Plants were scored/assessed at GS33 on 12 July, with other measurements at crop maturity.

Winter wheat = Winter wheat Trial 4, field trial, mean of nine varieties
Text: (§1) The applied concentration of chemical can vary widely depending on the water volume applied to plants as well as other factors such as plant age and size, and plant sensitivity to the product. Typical rates of AN-related compounds would be 1-10 g/ha (preferably and as used in these trials, 1 g per hectare was applied), typical rates of acetaminophen or its derivatives would be 1-10 g/ha (preferably and as used in these trials, 3 g per hectare was applied). Typical rates of the agrochemically acceptable additive of the present invention would be 1-10 g/ha (preferably and as used in these trials, less than 3 g per hectare was applied). The rate of other components such as spreaders and stickers can be 50-200 ml per ha.
D. WINTER WHEAT TRIAL 4—Field trial, sown 18 Oct. 2007. Mean of Nine Varieties—mean values from varieties Solstice, Battalion, Duxford, Marksman, Gallant, Panorama, Qplus, Cassius, Alchemy. Location: Great Dunmow, Essex, UK, 2008. Seed rate 400 seeds/sq metre. Formulations applied mid-tillering (GS23), and assessed at GS33 and at maturity.

Winter barley = Winter barley Trial 5, field trial, mean of nine varieties
Text: as §1
E. WINTER BARLEY TRIAL 5—Field trial, sown 14 Oct. 2007. Mean of Nine Varieties—mean values from varieties Pearl, Flagon, Cassata, Wintmalt, Saffron, Suzuka, Marcorel, Sequel, Volume. Location: Great Dunmow, Essex, UK, 2008. Seed rate 400 seeds/sq metre. Formulations applied mid-tillering (GS23), and assessed at GS33 and at maturity.

Winter wheat varieties = Winter wheat varieties UK field trials, mean root weight per plant; conditions: for Mean Root Weight Per Plant (g), individual replicate: GS33, individual replicates, listed as B.; for Mean Root Weight Per Plant (g), Mean: GS33, mean of replicates; for Increase in Mean Root Weight Per Plant: GS33, vs A. Control
Text: F. WINTER WHEAT VARIETIES—UK field trials. Formulations applied at mid-tillering and measured at third node stage (GS33).
(§2) Treatments compared: • A. Control vs • B. Chlormequat chloride (620 g/litre) applied at 1.0 litre in 250 litres water per hectare. • C. Anthranilic Acid (1 g/ha)+Acetaminophen (3 g/ha) in 250 litres water per hectare. • B.+C. Combination of B. and C. above, in 250 litres water per hectare.
Mean Root Weight Per Plant (g)—three winter wheat varieties: individual replicates and mean values. Mean root weight per plant (g) is a mean value from 10 median plants taken from a representative 20 plant sample per plot.

Winter barley varieties = Winter barley varieties UK field trials, mean root weight per plant; conditions: for Mean Root Weight Per Plant (g), individual replicate: GS33, individual replicates, listed as B.; for Mean Root Weight Per Plant (g), Mean: GS33, mean of replicates; for Increase in Mean Root Weight Per Plant: GS33, vs A. Control
Text: G. WINTER BARLEY VARIETIES—UK field trials. Formulations applied at mid-tillering and measured at third node stage (GS33).
as §2
Mean Root Weight Per Plant (g)—three winter barley varieties: individual replicates and mean values.

C[N+](C)(C)CCCl [CCC, Chlormequat chloride]
No of Large Pod Bearing Branches/Plant at Harvest (Soybean): 1.0 | Final Seed Yield at Harvest (g per pot) (Soybean): 36.0 g per pot | Plant Biomass Score (0-9) at Harvest (Soybean): 6.0 | Rooting (0-9) + 28 Days (Soybean): 4.4 | Final Seed Yield + % (Soybean): 0% | No of Large Pod Bearing Branches/Plant + % (Soybean): 0% | Plant Biomass Score + % (Soybean): 0% | Rooting + % (Soybean): 0% | No of Large Pod Bearing Branches/Plant at Harvest (Navy bean cv Primel): 1.4 | Final Seed Yield at Harvest (g per pot) (Navy bean cv Primel): 55.6 g per pot | Plant Biomass Score (0-9) at Harvest (Navy bean cv Primel): 5.4 | Rooting (0-9) + 28 Days (Navy bean cv Primel): 7.4 | Final Seed Yield + % (Navy bean cv Primel): 0% | No of Large Pod Bearing Branches/Plant + % (Navy bean cv Primel): 0% | Plant Biomass Score + % (Navy bean cv Primel): 0% | Rooting + % (Navy bean cv Primel): 0% | Total No of Shoots/Plant at GS33 (Winter wheat cv Limerick): 3.8 | Total No of “Large” Shoots/Plant at GS33 (Winter wheat cv Limerick): 2.6 | Rooting (0-9) + 28 Days (Winter wheat cv Limerick): 6.0 | Final Seed Yield + % (Winter wheat cv Limerick): 0% | Rooting + % (Winter wheat cv Limerick): 0% | Total No of Shoots/Plant + % (Winter wheat cv Limerick): 0% | Total No of “Large” Shoots/Plant + % (Winter wheat cv Limerick): 0% | Final Seed Yield at Harvest (g per pot) (Winter wheat cv Limerick): 36.4 g per pot | Final Ear Wt (10 ears) (Winter wheat; CCC 1.0 l/ha): 18.4 g | Mean Root Diameter GS33 (cm) (Winter wheat; GS33, CCC 1.0 l/ha): 2.51 cm | Mean Root Length GS33 (cm) (Winter wheat; GS33, CCC 1.0 l/ha): 2.40 cm | Mean Root Weight GS33 (Winter wheat; GS33, CCC 1.0 l/ha): 4.10 g | No of “large” Stems GS33 (Winter wheat; GS33, CCC 1.0 l/ha): 2.95 | Total Stem Number GS33 (Winter wheat; GS33, CCC 1.0 l/ha): 4.40 | Mean % Lodged Maturity (Winter wheat; at maturity, CCC 1.0 l/ha): 1.7% | Final Ear Wt (10 ears) (Winter barley; CCC 1.0 l/ha): 22.8 g | Mean Root Diameter GS33 (cm) (Winter barley; GS33, CCC 1.0 l/ha): 2.05 cm | Mean Root Length GS33 (cm) (Winter barley; GS33, CCC 1.0 l/ha): 3.66 cm | Mean Root Weight GS33 (Winter barley; GS33, CCC 1.0 l/ha): 3.06 g | No of “large” Stems GS33 (Winter barley; GS33, CCC 1.0 l/ha): 4.23 | Total Stem Number GS33 (Winter barley; GS33, CCC 1.0 l/ha): 6.01 | Mean % Lodged Maturity (Winter barley; at maturity, CCC 1.0 l/ha): 26.3% | Mean Root Weight Per Plant (g), individual replicate (Winter wheat varieties; winter wheat variety Battalion): 4.1 g and 4.3 g and 4.4 g and 4.2 g | Mean Root Weight Per Plant (g), Mean (Winter wheat varieties; winter wheat variety Battalion): 4.25 g | Increase in Mean Root Weight Per Plant (Winter wheat varieties; winter wheat variety Battalion): +1.12 g | Mean Root Weight Per Plant (g), individual replicate (Winter wheat varieties; winter wheat variety Marksman): 4.3 g and 4.4 g (2×) and 4.5 g | Mean Root Weight Per Plant (g), Mean (Winter wheat varieties; winter wheat variety Marksman): 4.40 g | Increase in Mean Root Weight Per Plant (Winter wheat varieties; winter wheat variety Marksman): +1.10 g | Mean Root Weight Per Plant (g), individual replicate (Winter wheat varieties; winter wheat variety Solstice): 3.6 g (2×) and 3.7 g and 3.8 g | Mean Root Weight Per Plant (g), Mean (Winter wheat varieties; winter wheat variety Solstice): 3.68 g | Increase in Mean Root Weight Per Plant (Winter wheat varieties; winter wheat variety Solstice): +0.9 g | Mean Root Weight Per Plant (g), individual replicate (Winter barley varieties; winter barley variety Flagon): 4.0 g (2×) and 3.9 g and 4.2 g | Mean Root Weight Per Plant (g), Mean (Winter barley varieties; winter barley variety Flagon): 4.03 g | Increase in Mean Root Weight Per Plant (Winter barley varieties; winter barley variety Flagon): +1.65 g | Mean Root Weight Per Plant (g), individual replicate (Winter barley varieties; winter barley variety Marcorel): 2.8 g (3×) and 2.9 g | Mean Root Weight Per Plant (g), Mean (Winter barley varieties; winter barley variety Marcorel): 2.83 g | Increase in Mean Root Weight Per Plant (Winter barley varieties; winter barley variety Marcorel): +0.85 g | Mean Root Weight Per Plant (g), individual replicate (Winter barley varieties; winter barley variety Suzuka): 4.0 g and 3.0 g (3×) | Mean Root Weight Per Plant (g), Mean (Winter barley varieties; winter barley variety Suzuka): 3.25 g | Increase in Mean Root Weight Per Plant (Winter barley varieties; winter barley variety Suzuka): +0.90 g

CCOC(=O)C1CC(=O)C(=C(O)C2CC2)C(=O)C1 (centres unmarked) [MOD, Trinexapac-ethyl]
No of Large Pod Bearing Branches/Plant at Harvest (Soybean): 1.0 | Final Seed Yield at Harvest (g per pot) (Soybean): 36.2 g per pot | Plant Biomass Score (0-9) at Harvest (Soybean): 6.2 | Rooting (0-9) + 28 Days (Soybean): 4.4 | Final Seed Yield + % (Soybean): 0% | No of Large Pod Bearing Branches/Plant + % (Soybean): 0% | Plant Biomass Score + % (Soybean): 0% | Rooting + % (Soybean): 0% | No of Large Pod Bearing Branches/Plant at Harvest (Navy bean cv Primel): 1.2 | Final Seed Yield at Harvest (g per pot) (Navy bean cv Primel): 56.1 g per pot | Plant Biomass Score (0-9) at Harvest (Navy bean cv Primel): 5.6 | Rooting (0-9) + 28 Days (Navy bean cv Primel): 7.2 | Final Seed Yield + % (Navy bean cv Primel): 0% | No of Large Pod Bearing Branches/Plant + % (Navy bean cv Primel): 0% | Plant Biomass Score + % (Navy bean cv Primel): 0% | Rooting + % (Navy bean cv Primel): 0% | Total No of Shoots/Plant at GS33 (Winter wheat cv Limerick): 3.8 | Total No of “Large” Shoots/Plant at GS33 (Winter wheat cv Limerick): 2.6 | Rooting (0-9) + 28 Days (Winter wheat cv Limerick): 6.4 | Final Seed Yield + % (Winter wheat cv Limerick): 0% | Rooting + % (Winter wheat cv Limerick): 0% | Total No of Shoots/Plant + % (Winter wheat cv Limerick): 0% | Total No of “Large” Shoots/Plant + % (Winter wheat cv Limerick): 0% | Final Seed Yield at Harvest (g per pot) (Winter wheat cv Limerick): 35.4 g per pot
